The values that follow come from patent US11207360B2, “Composition for the treatment of dysbiosis of the intestinal microbiota” (NUTRAVIS S.R.L., priority 2017, dated 2021).

Common to all, as to format: cell-based
Details in all cases: liposomes containing 1 mg beta-carotene, 24 hours at 37° C.

In one assay the test system is Bacillus coagulans. Briefly: Abscisic acid (ABA) production by Bacillus coagulans culture incubated with carotenoid liposomes, ABA ELISA. Here is the method:
Lyophilized probiotics were grown separately in LB medium in shake-flasks equipped with vented cap at 37° C. for 24 hours. After growth, each probiotic suspension was diluted with LB medium to reach approximately 0.1 O.D. at 600 nm. 3.5 ml of each diluted suspension was added with 500 μl of: i) empty liposomes, […] iii) liposomes containing 0.1 mg xanthophyll, iv) both liposomes containing carotene and xanthophyll, and incubated with shaking at 350 rpm at 37° C. for 24 hours. At the end of the incubation, each probiotic suspension was pelleted by centrifugation at 3000×g for 10 minutes. Supernatant was recovered, added with 4 vol of methanol and stored at −20° C. for 24 hours. Pellet was washed once with saline buffer, centrifuged at 3000×g for 10 minutes, resuspended in 2 ml of methanol, sonicated in ice and stored at −20° C. for 24 hours. 4 mg of carotene and 0.4 mg of xanthophyll were dissolved each in 200 μl of chloroform by vortexing. For each liposome preparation 200 mg of lecithin were dissolved in 500 μl of chloroform. Both carotene and xanthophyll chloroform solutions were added, separately, to the chloroform lecithin solution, vortexed, and completely dried with N2 to create a thin layer on the inner wall of a glass Corex. […] Quantification of abscisic acid (ABA) was performed on both pellets and supernatants obtained as described above (see Bacterial cell culture). […]

Assay [1] relates to Bacillus coagulans, Lactobacillus Plantarum. The experiment in a line: Abscisic acid production by culture of Bacillus coagulans and Lactobacillus Plantarum incubated with liposomes, ABA ELISA. The procedure: (§1) Lyophilized probiotics were grown separately in LB medium in shake-flasks equipped with vented cap at 37° C. for 24 hours. After growth, each probiotic suspension was diluted with LB medium to reach approximately 0.1 O.D. at 600 nm. 3.5 ml of each diluted suspension was added with 500 μl of:
(§2) ii) liposomes containing 1 mg carotene,
(§3) iii) liposomes containing 0.1 mg xanthophyll,
(§4) iv) both liposomes containing carotene and xanthophyll, and
(§5) incubated with shaking at 350 rpm at 37° C. for 24 hours.
(§6) At the end of the incubation, each probiotic suspension was pelleted by centrifugation at 3000×g for 10 minutes. Supernatant was recovered, added with 4 vol of methanol and stored at −20° C. for 24 hours. Pellet was washed once with saline buffer, centrifuged at 3000×g for 10 minutes, resuspended in 2 ml of methanol, sonicated in ice and stored at −20° C. for 24 hours.
(§7) 4 mg of carotene and 0.4 mg of xanthophyll were dissolved each in 200 μl of chloroform by vortexing. For each liposome preparation 200 mg of lecithin were dissolved in 500 μl of chloroform. Both carotene and xanthophyll chloroform solutions were added, separately, to the chloroform lecithin solution, vortexed, and completely dried with N2 to create a thin layer on the inner wall of a glass Corex. […]
(§8) Quantification of abscisic acid (ABA) was performed on both pellets and supernatants obtained as described above (see Bacterial cell culture). […]
Background: In an ELISA, binding on a coated surface is turned into a signal by an enzyme label.

A further assay concerns Lactobacillus Rhamnosus. The experiment in a line: Abscisic acid production by Lactobacillus Rhamnosus culture incubated with liposomes, ABA ELISA. Here is the method: as §1, §2, §3, §4, §5, §6, §7, §8

SMILES strings stand for the structures.

As for `CC1=C(/C=C/C(C)=C/C=C/C(C)=C/C=C/C=C(C)/C=C/C=C(C)/C=C/C2=C(C)CCCC2(C)C)C(C)(C)CCC1` [beta-carotene], the “production of abscisic acid, times higher than culture with empty liposomes (FIG. 2)” value in the assay with Bacillus coagulans is “about 5 times”. Moreover, the “production of abscisic acid, times higher than culture with empty liposomes (FIG. 1A)” value in the assay on Bacillus coagulans (p=0.0093) is listed as “about 6.6 times”. The “production of abscisic acid, times higher than culture with empty liposomes (FIG. 1B)” value in assay [1] was “about 7.5 times”. Also, in the assay on Lactobacillus Rhamnosus, the “production of abscisic acid, times higher than culture with empty liposomes (FIG. 1C)” value is “about 20 times”.
